From patent publication US10799605B2 (3B PHARMACEUTICALS GMBH, priority 2014, dated 2020)
pEC50, pIC50: −log10 of the molar value. Like-named read-outs stand apart in the source and are kept apart here.

Legend:
NTR1 [1] = molecular target: T1, NTR1 (Homo sapiens (Human), UniProt P30989); assay: Functional Ca2+ mobilisation assay (example part I); format: cell-based
From the text: (§1) Ca^2+ ions are usually kept at nanomolar levels in the cytosol of cells, and act in a number of signal transduction pathways as second messengers. […] Changes in calcium ion concentration in standard assay protocols can be readily detected with fluorescent dyes that emit light when changes in intracellular Ca^2+ ion concentration occur. Given the transient nature of these responses, they are often read with instrumentation that has ‘inject and read’ capability.
(§2) HT29 or NTR1-expressing HEK293 cells were trypsinized and seeded into black flat clear-bottom 96-well plates (Corning, Amsterdam, The Netherlands) at […] cells per well. After 24 h incubation at 37° C. and 5% CO2, cells were washed twice with wash buffer (130 mM NaCl, 5 mM KCl, 10 mM Hepes, 2 mM CaCl2, 10 mM Glucose, pH 7.4) and loaded with 100 μl of Ca5 dye (Molecular Devices, Biberach, Germany) for 1 h at 37° C. and 5% CO2. For agonist assays, serial dilutions of agonistic substances were added to the cells loaded with dye and the change of the fluorescent signal was recorded continually for approx. 90 s using a FlexStation II (Molecular Devices, Biberach, Germany). Addition of wash buffer served as a control. Thus, EC50 concentrations for each conjugate were computed and provided a measure for the potency of the substance. For antagonist assays, cells loaded with 100 μl of Ca5-dye were pre-incubated with serial dilutions of antagonistic substances for 30 min, before the EC80-concentration of agonist was added to the cells and the change of the fluorescent signal was recorded continually for approx. 90 s. Thus, IC50 concentrations were computed for each conjugate and provided a measure for the inhibitory activity of the conjugates at the NTR1.

NTR1 [2] = molecular target: T1, NTR1; assay: Radioligand binding assay NTR1 (example part I)
Description: In order to determine the binding affinity of compounds comprising a radiolabel for NTR1, a radioligand binding assay was carried out. A radioligand is a radioactive biochemical substance that is used for diagnosis or for research-oriented study of cellular receptor systems of the body. In […] systems it is often used to quantify the binding of a test molecule to the binding site of radioligand. The higher the affinity of the molecule, the more radioligand is displaced from the binding site. The amount of bound radioligand can be measured by scintillation counting and thereby quantified. This assay is commonly used to calculate binding constants of molecules to receptors.
The NTR1 radioligand binding assay was performed by Cerep (Celle l'Evescault, France; Catalog reference 0109) according to Vita et al., FEBS Lett., 1993, 317, 139-142. NTR1 was prepared from CHO cells recombinantly expressing the human receptor and incubated with 0.05 nM ^125I-(Tyr^3-neurotensin) and serial dilutions of the test compounds. […] The result for each test compound is expressed as IC50 concentration and provides a measure for the affinity of the test compound for NTR1.

NTR1 [3] = molecular target: T1, NTR1; assay: Functional Ca2+ mobilisation assay (example part II); format: cell-based; conditions: antagonist assay
From the text: as §1, with “intracellular Ca2^+” for “intracellular Ca^2+”
as §2, with “compound” for “conjugate”, “compounds” for “conjugates”

[4] = agonist assay, * bell-shaped curves, EC50 from ascending part of the curve, read-out: Agonistic Effect EC50
[5] = antagonist assay, 30 min pre-incubation, EC80-concentration of agonist, read-out: Antagonistic Effect IC50
[6] = 0.05 nM 125I-(Tyr3-neurotensin), 60 min at 4° C., read-out: IC50

T1 sequence (P30989 whole entry): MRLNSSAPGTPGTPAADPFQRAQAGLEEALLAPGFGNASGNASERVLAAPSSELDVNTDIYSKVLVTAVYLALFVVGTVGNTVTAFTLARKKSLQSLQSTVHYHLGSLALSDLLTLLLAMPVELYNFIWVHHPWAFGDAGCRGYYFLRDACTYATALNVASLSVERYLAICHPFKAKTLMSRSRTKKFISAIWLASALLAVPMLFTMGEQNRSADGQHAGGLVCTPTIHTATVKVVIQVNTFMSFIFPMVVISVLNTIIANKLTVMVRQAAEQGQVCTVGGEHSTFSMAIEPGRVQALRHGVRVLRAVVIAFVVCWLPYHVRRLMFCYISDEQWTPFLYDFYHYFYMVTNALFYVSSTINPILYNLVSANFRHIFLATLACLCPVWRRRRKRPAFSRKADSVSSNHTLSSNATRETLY

SMILES	pEC50 (NTR1 [1])	pIC50 (NTR1 [1])	pIC50 (NTR1 [2])	further results
COc1cccc(OC)c1-c1cc(C(=O)NC2(C(=O)O)C3CC4CC(C3)CC2C4)nn1-c1ccc(C(=O)N(C)CCCN(C)CCCN(C)C(=O)CCCC(=O)NCCCOCCOCCOCCCNC(=O)CCC(=O)N[C@@H](CCCCNC(=O)CN2CCN(CC(=O)O)CCN(CC(=O)O)CCN(CC(=O)O)CC2)C(=O)NCCCOCCOCCOCCCNC(=O)CCC(=O)NCCCC(=O)N[C@@H](CCCNC(=N)N)C(=O)N[C@@H](CCCNC(=N)N)C(=O)N2CCC[C@H]2C(=O)N[C@@H](Cc2ccc(O)cc2)C(=O)N[C@H](C(=O)N[C@@H](CC(C)C)C(=O)O)C(C)(C)C)cc1C(C)C (stereo partly drawn) [(16), 1206-Glutar-Ttds-Lys(DOTA)-Ttds-GABA-Arg-Arg-Pro-Tyr-Tle-Leu-OH]	8.40	8.42	9.85	shape of EC50 curve (NTR1 [1]; agonist assay): bell-shaped EC50 curves
COc1cccc(OC)c1-c1cc(C(=O)NC2(C(=O)O)C3CC4CC(C3)CC2C4)nn1-c1ccc(C(=O)N(C)CCCN(C)CCCN(C)C(=O)CCCNC(=O)[C@H](CCCCNC(=O)CN2CCN(CC(=O)O)CCN(CC(=O)O)CCN(CC(=O)O)CC2)NC(=O)CCCC(=O)N(C)CCCN(C)CCCN(C)C(=O)c2ccc(-n3nc(C(=O)NC4(C(=O)O)C5CC6CC(C5)CC4C6)cc3-c3c(OC)cccc3OC)c(C(C)C)c2)cc1C(C)C (stereo partly drawn) [(13), 1206-Glutar-Lys(DOTA)-GABA-1206]	–	–	–	pEC50 (NTR1 [1]; [4]): < 4.30; pIC50 (NTR1 [1]; [5]): 8.21; pIC50 (NTR1 [2]; [6]): 8.66
COc1cccc(OC)c1-c1cc(C(=O)NC2(C(=O)O)C3CC4CC(C3)CC2C4)nn1-c1ccc(C(=O)N(C)CCCN(C)CCCN(C)C(=O)CCCC(=O)NCCCOCCOCCOCCCNC(=O)CCC(=O)NCCCOCCOCCOCCCNC(=O)CCC(=O)NCCCOCCOCCOCCCNC(=O)CCC(=O)N[C@@H](CC(N)=O)C(=O)N[C@@H](C)C(=O)N[C@H](C(=O)N2CCC[C@H]2C(=O)N[C@@H](CC(N)=O)C(=O)N[C@@H](CC(C)C)C(=O)N[C@@H](CCCNC(=N)N)C(=O)NCC(=O)N[C@@H](CC(=O)O)C(=O)N[C@@H](CC(C)C)C(=O)N[C@@H](CCC(N)=O)C(=O)N[C@H](C(=O)N[C@@H](CC(C)C)C(=O)N[C@@H](C)C(=O)N[C@@H](CCC(N)=O)C(=O)N[C@@H](CCCCN)C(=O)N[C@H](C(=O)N[C@@H](C)C(=O)N[C@@H](CCCNC(=N)N)C(=O)N[C@H](C(=O)NCCCC(=O)NCCCOCCOCCOCCCNC(=O)CCC(=O)N[C@@H](CCCCNC(=O)CN2CCN(CC(=O)O)CCN(CC(=O)O)CCN(CC(=O)O)CC2)C(N)=O)[C@@H](C)O)C(C)C)C(C)C)C(C)C)cc1C(C)C (stereo partly drawn) [(24)]	< 4.30	7.42	8.00	–
COc1cccc(OC)c1-c1cc(C(=O)NC2(C(=O)O)C3CC4CC(C3)CC2C4)nn1-c1ccc(C(=O)N(C)CCCN(C)CCCN(C)C(=O)CCCC(=O)NCCCCCC(=O)N[C@@H](CCCCNC(=O)CN2CCN(CC(=O)O)CCN(CC(=O)O)CCN(CC(=O)O)CC2)C(=O)N[C@@H](CCCCNC(=O)CCCC(=O)N(C)CCCN(C)CCCN(C)C(=O)c2ccc(-n3nc(C(=O)NC4(C(=O)O)C5CC6CC(C5)CC4C6)cc3-c3c(OC)cccc3OC)c(C(C)C)c2)C(N)=O)cc1C(C)C (stereo partly drawn) [(14), 1206-Glutar-Ahx-Lys(DOTA)-(ε-Lys-NH2)-Glutar-1206]	–	–	–	pEC50 (NTR1 [1]; [4]): < 4.30; pIC50 (NTR1 [1]; [5]): 8.64; pIC50 (NTR1 [2]; [6]): 8.62
COc1cccc(OC)c1-c1cc(C(=O)NC2(C(=O)O)C3CC4CC(C3)CC2C4)nn1-c1ccc(C(=O)N(C)CCCN(C)CCCN(C)C(=O)CCCC(=O)NCCCOCCOCCOCCCNC(=O)CCC(=O)NCCCC[C@H](NC(=O)CCC(=O)NCCCOCCOCCOCCCNC(=O)CCCC(=O)N(C)CCCN(C)CCCN(C)C(=O)c2ccc(-n3nc(C(=O)NC4(C(=O)O)C5CC6CC(C5)CC4C6)cc3-c3c(OC)cccc3OC)c(C(C)C)c2)C(=O)NCCCOCCOCCOCCCNC(=O)CCC(=O)N[C@@H](CC(N)=O)C(=O)N[C@@H](C)C(=O)N[C@H](C(=O)N2CCC[C@H]2C(=O)N[C@@H](CC(N)=O)C(=O)N[C@@H](CC(C)C)C(=O)N[C@@H](CCCNC(=N)N)C(=O)NCC(=O)N[C@@H](CC(=O)O)C(=O)N[C@@H](CC(C)C)C(=O)N[C@@H](CCC(N)=O)C(=O)N[C@H](C(=O)N[C@@H](CC(C)C)C(=O)N[C@@H](C)C(=O)N[C@@H](CCC(N)=O)C(=O)N[C@@H](CCCCN)C(=O)N[C@H](C(=O)N[C@@H](C)C(=O)N[C@@H](CCCNC(=N)N)C(=O)N[C@H](C(=O)NCCCC(=O)NCCCOCCOCCOCCCNC(=O)CCC(=O)N[C@@H](CCCCNC(=O)CN2CCN(CC(=O)O)CCN(CC(=O)O)CCN(CC(=O)O)CC2)C(N)=O)[C@@H](C)O)C(C)C)C(C)C)C(C)C)cc1C(C)C (stereo partly drawn) [(25)]	< 4.30	7.92	8.12	–
COc1cccc(OC)c1-c1cc(C(=O)NC2(C(=O)O)C3CC4CC(C3)CC2C4)nn1-c1ccc(C(=O)N(C)CCCN(C)CCCN(C)C(=O)CCCC(=O)NCCCC[C@H](NC(=O)CCC(=O)NCCCOCCOCCOCCCNC(=O)CCC(=O)NCCCOCCOCCOCCCNC(=O)CCC(=O)NCCCOCCOCCOCCCNC(=O)[C@H](CCCCNC(=O)CN2CCN(CC(=O)O)CCN(CC(=O)O)CCN(CC(=O)O)CC2)NC(=O)CCC(=O)NCCCOCCOCCOCCCNC(=O)CCC(=O)NCCCOCCOCCOCCCNC(=O)CCC(=O)NCCCOCCOCCOCCCNC(=O)CCCNC(=O)[C@@H](NC(=O)[C@H](CCCNC(=N)N)NC(=O)[C@H](C)NC(=O)[C@@H](NC(=O)[C@H](CCCCN)NC(=O)[C@H](CCC(N)=O)NC(=O)[C@H](C)NC(=O)[C@H](CC(C)C)NC(=O)[C@@H](NC(=O)[C@H](CCC(N)=O)NC(=O)[C@H](CC(C)C)NC(=O)[C@H](CC(=O)O)NC(=O)CNC(=O)[C@H](CCCNC(=N)N)NC(=O)[C@H](CC(C)C)NC(=O)[C@H](CC(N)=O)NC(=O)[C@@H]2CCCN2C(=O)[C@@H](NC(=O)[C@H](C)NC(=O)[C@H](CC(N)=O)NC(C)=O)C(C)C)C(C)C)C(C)C)[C@@H](C)O)C(N)=O)cc1C(C)C (stereo partly drawn) [(22)]	< 4.30	7.68	8.04	–
COc1cccc(OC)c1-c1cc(C(=O)NC2(C(=O)NCCNC(=O)CN3CCN(CC(=O)O)CCN(CC(=O)O)CCN(CC(=O)O)CC3)C3CC4CC(C3)CC2C4)nn1-c1ccc(C(=O)N(C)CCCN(C)C)cc1C(C)C (stereo not drawn) [(XVII), 5-(2,6-Dimethoxy-phenyl)-1-{4-[(3-dimethylamino-propyl)-methyl-carbamoyl]-2-isopropyl-phenyl}-1H-pyrazole-3-carboxylic acid [2-(2-DOTA-amino-ethylcarbamoyl)-adamantan-2-yl]-amide, reference compound]	–	–	–	IC50 [nM] Ca (NTR1 [3]): inactivity
COc1cccc(OC)c1-c1cc(C(=O)N[C@H](C(=O)O)C2CCCCC2)nn1-c1ccc(C(=O)N(C)CCCN(C)CCCN(C)C(=O)CN2CCN(CC(=O)O)CCN(CC(=O)O)CCN(CC(=O)O)CC2)cc1C(C)C [(IVa), (S)-2-{[1-{4-[(3-{[3-(DOTA-methyl-amino)-propyl]-methyl-amino}-propyl)-methyl-carbamoyl]-2-isopropyl-phenyl}-5-(2,6-dimethoxy-phenyl)-1H-pyrazole-3-carbonyl]-amino}-cyclohexyl-acetic acid]	–	–	–	IC50 (NTR1 [3]): 125 nM
